Results taken from PubChem BioAssay AID1918941 (Molecular Pharmacology Branch, DTP, NCI, 2023).
pIC50: −log10 of the molar value. “And” between values parts separate entries of the source, which are not always exact repeats. Identical values can stand only once.

Tested on: SW 1271 complex spheroids, viability
Assay: Anticancer human tumor SW 1271 cell line growth inhibition [LSD1];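 further: spheroids exposed to agents for 7 days before luminescence read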;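 on viability, T/C: 100% = DMSO vehicle control viability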
Conditions: for viability, T/C: stronger effect = lower value
Procedure, shortened: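 Drug combinations with the LSD1 inhibitor iadademstat tested on tumor cells co-cultured as spheroids with endothelial cells and mesenchymal stem cells. Concentrations descended in half-log increments from clinical Cmax or 10 microM.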

[1] = curve of first compound, second compound 0.1 µM
[2] = curve of first compound, second compound 0.316 µM
[3] = curve of first compound, second compound 1 µM
[4] = curve of first compound, second compound 3.16 µM
[5] = curve of first compound, second compound 10 µM
[6] = second compound 0.1 µM, first compound 0.00949 µM
[7] = second compound 0.1 µM, first compound 0.03 µM
[8] = second compound 0.1 µM, first compound 0.0949 µM
[9] = second compound 0.1 µM, first compound 0.3 µM
[10] = second compound 0.316 µM, first compound 0.00949 µM
[11] = second compound 0.316 µM, first compound 0.03 µM
[12] = second compound 0.316 µM, first compound 0.0949 µM
[13] = second compound 0.316 µM, first compound 0.3 µM
[14] = second compound 1 µM, first compound 0.00949 µM
[15] = second compound 1 µM, first compound 0.03 µM
[16] = second compound 1 µM, first compound 0.0949 µM
[17] = second compound 1 µM, first compound 0.3 µM
[18] = second compound 3.16 µM, first compound 0.00949 µM
[19] = second compound 3.16 µM, first compound 0.03 µM
[20] = second compound 3.16 µM, first compound 0.0949 µM
[21] = second compound 3.16 µM, first compound 0.3 µM
[22] = second compound 10 µM, first compound 0.00949 µM
[23] = second compound 10 µM, first compound 0.03 µM
[24] = second compound 10 µM, first compound 0.0949 µM
[25] = second compound 10 µM, first compound 0.3 µM

Row | Structure (SMILES) | pIC50 [1] | pIC50 [2] | pIC50 [3] | pIC50 [4] | pIC50 [5] | viability, T/C [6] [%] | viability, T/C [7] [%] | viability, T/C [8] [%] | viability, T/C [9] [%] | viability, T/C [10] [%] | viability, T/C [11] [%] | viability, T/C [12] [%] | viability, T/C [13] [%] | viability, T/C [14] [%] | viability, T/C [15] [%] | viability, T/C [16] [%] | viability, T/C [17] [%] | viability, T/C [18] [%] | viability, T/C [19] [%] | viability, T/C [20] [%] | further results
1 | Nc1ncn(C2CC(O)C(CO)S2)c(=O)n1 (configuration not stated) + NC1CCC(NC2CC2c2ccccc2)CC1 | < 6.52 | < 6.52 | < 6.52 | < 6.52 | < 6.52 | 92.1 | 85.2 | 86.9 | 82 | 105 | 93.6 | 86.7 | 82.1 | 98.6 | 101 | 89.2 | 72.4 | 77.4 | 93.9 | 77.7 | viability, T/C (second compound 0.1 µM, first compound 0.000949 µM): 97.4%; viability, T/C (second compound 0.1 µM, first compound 0.003 µM): 82.8%; viability, T/C (second compound 0.316 µM, first compound 0.000949 µM): 98.1%; viability, T/C (second compound 0.316 µM, first compound 0.003 µM): 92%; viability, T/C (second compound 1 µM, first compound 0.000949 µM): 92.8%; viability, T/C (second compound 1 µM, first compound 0.003 µM): 84.5%; viability, T/C (second compound 3.16 µM, first compound 0.000949 µM): 94.8%; viability, T/C (second compound 3.16 µM, first compound 0.003 µM): 91.7%; viability, T/C [21]: 82.1%; viability, T/C (second compound 10 µM, first compound 0.000949 µM): 70.8%; viability, T/C (second compound 10 µM, first compound 0.003 µM): 84.5%; viability, T/C [22]: 84.5%; viability, T/C [23]: 83.9%; viability, T/C [24]: 83.2%; viability, T/C [25]: 63.6%
2 | CC(C)c1c(-c2ccccc2)nc2c(C#N)c[nH]n2c1=O | – | – | – | – | – | – | – | – | – | – | – | – | – | – | – | – | – | – | – | – | viability, T/C (compound 0.0316 µM): 85.1% and 98.1%; viability, T/C (compound 0.1 µM): 83.1% and 98.6%; viability, T/C (compound 0.316 µM): 83.4% and 100%; viability, T/C (compound 1 µM): 89.3% and 88.1%; viability, T/C (compound 3.16 µM): 86.2% and 91.6%; viability, T/C (compound 10 µM): 75.1% and 94.7%; pIC50 (curve of compound): < 5.00
3 | Nc1ccccc1NC(=O)c1ccc(CNC(=O)OCc2cccnc2)cc1 + NC1CC1c1ccc(-c2cccc(O)c2)cc1 | 6.97 | 6.92 | 7.20 | 7.12 | 7.42 | 85.6 | 65.7 | 56.7 | 29.6 | 89.2 | 75.3 | 57.3 | 27.7 | 94.3 | 59.9 | 46.6 | 26.6 | 81.3 | 69.7 | 40.5 | viability, T/C (second compound 0.1 µM, first compound 0.949 µM): 8.17%; viability, T/C (second compound 0.1 µM, first compound 3 µM): 3.78%; viability, T/C (second compound 0.316 µM, first compound 0.949 µM): 6.71%; viability, T/C (second compound 0.316 µM, first compound 3 µM): 4.39%; viability, T/C (second compound 1 µM, first compound 0.949 µM): 7.28%; viability, T/C (second compound 1 µM, first compound 3 µM): 5.61%; viability, T/C [21]: 32.4%; viability, T/C (second compound 3.16 µM, first compound 0.949 µM): 10%; viability, T/C (second compound 3.16 µM, first compound 3 µM): 4.69%; viability, T/C [22]: 66.7%; viability, T/C [23]: 51.9%; viability, T/C [24]: 38.6%; viability, T/C [25]: 29.4%; viability, T/C (second compound 10 µM, first compound 0.949 µM): 11.7%; viability, T/C (second compound 10 µM, first compound 3 µM): 6.45%
